From patent US11806359B2 (priority 2020, dated 2023)

Tests used:
ZIKV (PLCal_ZV strain) = test: CPE-based antiviral assay, ZIKV, neutral red readout (Example 14); assay type: cell-based, Zikavirus; details: 6 days post infection
Protocol: A CPE-based antiviral assay was performed by infecting target cells in the presence or absence of test compositions, at a range of concentrations. […] cytopathic effects and cell death. […] For CPE-based assays, cell viability was determined with a neutral red readout. Viable cells incorporate neutral red in their lysosomes. Uptake of neutral red relies on the ability of live cells to maintain a lower pH inside their lysosomes than in the cytoplasm, and this active process requires ATP. Once inside the lysosome, the neutral red dye becomes charged and is retained intracellularly. […] The amount of neutral red in solution was quantified by reading the absorbance (optical density) of each well at 490 nm […]
Cytotoxic effects were evaluated in uninfected cells by comparing viability in the presence of inhibitors to the viability of mock-treated cells. Cytotoxicity was determined by an XTT viability assay, which was conducted at the same timepoint as the readout for the corresponding infection assay.
Test compositions were dissolved in 100% methanol. […] When possible, the EC50 and CC50 of the composition was determined for each assay using GraphPad Prism software. […]
Protection of ZIKV-induced cytopathic effect (CPE) with Neutral Red readout: For the ZIKV antiviral assay, the PLCal_ZV strain was used. […]

HIV-1 = details: Singh et al. 2013; cited from earlier work
huPBMCs = test: Cytotoxicity/apoptosis in primary huPBMCs, Annexin V-FITC/PI staining; assay type: cell-based, human; details: compared to the vehicle control, 72 hrs
Protocol: Primary buffy-coat huPBMCs were isolated and stimulated with phytohemagglutinin (PHA) and cultured in the presence of recombinant human interleukin-2 (hIL-2). The cells were then treated for 72 hrs with increasing concentrations of oleandrin or a N. oleander extract, or with increasing volumes of the Vehicle. The samples were subsequently stained with Annexin V-FITC and PI and the relative percentages of apoptotic (i.e., Annexin V-FITC and/or PI-positive) cells per field were quantified by confocal fluorescence-microscopy and counting in-triplicate.
Cytotoxic effects of the Vehicle control, N. oleander extract, and the oleandrin compound were assessed by treating primary huPBMCs for 72 hrs, and then the cultures were stained with Annexin V-FITC and PI. The relative percentages of apoptotic (i.e., Annexin V-FITC and/or PI-positive) cells were quantified by fluorescence-microscopy and counting triplicate visual fields using a 20× objective lens. The total numbers of cells were determined using DIC phase-contrast microscopy. Cyclophosphamide (50 μM)-treated cells were included as a positive control for apoptosis. NA indicates the number of cells in this sample was too low for accurate assessment due to higher toxicity. […]

SMILES: CO[C@H]1C[C@H](O[C@H]2CC[C@@]3(C)[C@H](CC[C@@H]4[C@@H]3CC[C@]3(C)[C@@H](C5=CC(=O)OC5)[C@@H](OC(C)=O)C[C@]43O)C2)O[C@@H](C)[C@@H]1O [oleandrin]
- efficacy against Zika virus (ZIKV (PLCal_ZV strain)): demonstrates efficacy
- HIV-1 viral infectivity in vitro (HIV-1): inhibit viral infectivity in vitro
- cytotoxicity in huPBMCs (huPBMCs): moderate cytotoxicity
